Reference: patent publication US4550179A, “N-(1-Allyl-2-pyrrolidinyl-methyl) 2-methoxy-4-amino-5-methylsulfamoyl benzamide” (Societe d'Etudes Scientifiques et Industrielles de l'Ile-de …, priority 1980, dated 1985)

Legend:
[1] = anticonvulsive action (electric shock, pentetrazol, nicotine, auditory stimulus); assay type: in vivo; settings: nicotine or auditory stimulus
adrenalin = assay: hypertensive response to adrenalin, anaesthetised dog; assay type: in vivo; settings: for % reduction relative to control hypertension (R): adrenalin
Excerpt: The effects of the benzamide on the cardiovascular system were studied in a dog anaesthetised with chloralose, with the following results: […]

noradrenalin = assay: hypertensive response to noradrenalin, anaesthetised dog; assay type: in vivo; settings: for % reduction relative to control hypertension (R): noradrenalin
Excerpt: The effects of the benzamide on the cardiovascular system were studied in a dog anaesthetised with chloralose, with the following results:
Noradrenalin 0.5 R = 21%

histamine [2] = assay: interaction with histamine, arterial pressure of anaesthetised dog; assay type: in vivo
Excerpt: (§1) Finally, researchers looked for interaction between the benzamide according to the invention and histamine, in the arterial pressure of an anaesthetised dog and the isolated ileum of a guinea pig.

histamine [3] = assay: interaction with histamine, isolated ileum of guinea pig
Excerpt: as §1

C=CCN1CCCC1CNC(=O)c1cc(S(=O)(=O)NC)c(N)cc1OC (stereo not shown) [Benzamide according to the invention, N-(1-allyl-2-pyrrolidinyl-methyl)2-methoxy-4-amino-5-methylsulfamoyl benzamide]
anticonvulsive action [1]: no anticonvulsive action
% reduction relative to control hypertension (R) (adrenalin; cumulative dose 0.5 mg/kg I.V.): 5%
% reduction relative to control hypertension (R) (adrenalin; cumulative dose 1 mg/kg I.V.): 3%
% reduction relative to control hypertension (R) (adrenalin; cumulative dose 2 mg/kg I.V.): 4%
% reduction relative to control hypertension (R) (adrenalin; cumulative dose 4 mg/kg I.V.): 21%
% reduction relative to control hypertension (R) (adrenalin; cumulative dose 8 mg/kg I.V.): 40%
% reduction relative to control hypertension (R) (adrenalin; cumulative dose 16 mg/kg I.V.): 68%
% reduction relative to control hypertension (R) (adrenalin; cumulative dose 32 mg/kg I.V.): 84%
hypertensive responses caused by adrenalin (adrenalin; anaesthetised dog): reduces the hypertensive responses
hypertensive responses caused by noradrenalin (noradrenalin; anaesthetised dog): reduces the hypertensive responses
% reduction relative to control hypertension (R) (noradrenalin; cumulative dose 0.5 mg/kg I.V.): 21%
% reduction relative to control hypertension (R) (noradrenalin; cumulative dose 1 mg/kg I.V.): 13%
% reduction relative to control hypertension (R) (noradrenalin; cumulative dose 2 mg/kg I.V.): 30%
% reduction relative to control hypertension (R) (noradrenalin; cumulative dose 4 mg/kg I.V.): 30%
% reduction relative to control hypertension (R) (noradrenalin; cumulative dose 8 mg/kg I.V.): 40%
% reduction relative to control hypertension (R) (noradrenalin; cumulative dose 16 mg/kg I.V.): 49%
% reduction relative to control hypertension (R) (noradrenalin; cumulative dose 32 mg/kg I.V.): 66%
anti-histamine properties (histamine [2]): No anti-histamine properties were revealed
anti-histamine properties (histamine [3]): No anti-histamine properties were revealed
